Reference: PMC5400543, “Design, sythesis and evaluation of a series of 3- or 4-alkoxy substituted phenoxy derivatives as PPARs agonists” (Oncotarget, 2017)

What was measured:
PPARδ [1] = molecular target: T1, PPARδ (Homo sapiens, UniProt Q03181); assay: In vitro PPARδ transactivation assay (Gal4-hPPARδLBD luciferase reporter in 293E cells); details: for PPARδ Activation Fold: 10^−5 M, 24 h, Csamples/Ccontrol, mean±SEM; for Cmax: read-out: Cmax, concentration at maximum efficiency percentage (Max%), PPARδ, 24 h, multiple concentrations
T1 sequence (Q03181 211-439 limits assumed): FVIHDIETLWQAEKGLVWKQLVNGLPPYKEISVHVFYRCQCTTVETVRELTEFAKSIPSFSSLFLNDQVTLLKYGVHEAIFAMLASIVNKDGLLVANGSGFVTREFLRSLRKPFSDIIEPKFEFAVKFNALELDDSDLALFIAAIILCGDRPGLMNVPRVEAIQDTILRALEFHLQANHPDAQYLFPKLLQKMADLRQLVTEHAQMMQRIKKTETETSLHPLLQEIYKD

PPARγ [2] = molecular target: T2, PPARγ (Homo sapiens, UniProt P37231); assay: In vitro PPARγ transactivation assay (Gal4-hPPARγLBD luciferase reporter in 293E cells); details: 10^−5 M, 24 h, Csamples/Ccontrol, mean±SEM
T2 sequence (P37231 238-503 limits assumed): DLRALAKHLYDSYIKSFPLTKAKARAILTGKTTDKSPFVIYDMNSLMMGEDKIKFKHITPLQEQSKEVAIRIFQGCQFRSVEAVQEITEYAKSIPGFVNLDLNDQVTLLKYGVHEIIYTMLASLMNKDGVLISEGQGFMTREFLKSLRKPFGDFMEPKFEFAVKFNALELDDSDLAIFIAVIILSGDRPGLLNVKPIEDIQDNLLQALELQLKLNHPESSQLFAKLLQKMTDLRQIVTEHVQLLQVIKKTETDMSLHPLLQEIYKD

PPARα = molecular target: T3, PPARα (Homo sapiens, UniProt Q07869); assay: In vitro PPARα transactivation assay (Gal4-hPPARαLBD luciferase reporter in 293E cells); assay type: cell-based; details: 24 h; for PPARα Activation Fold: 10^−5 M, Csamples/Ccontrol, mean±SEM
T3 construct: pcDNA3.1-hPPARαLBD-Gal4DB; expressed in transfected cells; host or cells: 293E cells
T3 sequence (Q07869 239-466 limits assumed): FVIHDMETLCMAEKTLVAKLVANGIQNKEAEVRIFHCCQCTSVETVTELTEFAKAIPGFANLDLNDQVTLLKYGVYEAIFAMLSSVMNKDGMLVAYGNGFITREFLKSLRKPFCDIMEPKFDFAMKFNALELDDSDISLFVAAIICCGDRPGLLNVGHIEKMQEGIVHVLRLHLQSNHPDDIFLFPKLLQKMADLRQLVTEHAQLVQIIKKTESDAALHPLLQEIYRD

PPARδ [3] = molecular target: T1, PPARδ; assay: cell-based
PPARγ [4] = molecular target: T2, PPARγ
PPARγ [5] = molecular target: T2, PPARγ; assay: cell-based

Row | SMILES | PPARδ Activation Fold (PPARδ [1]) | PPARγ Activation Fold (PPARγ [2]) | PPARα Activation Fold (PPARα) | Cmax (PPARγ [4]) [µM] | EC50 (PPARγ [5]) [µM] | Cmax (PPARδ [1]) [µM] | EC50 (PPARδ [3]) [µM] | EC50 (PPARα; multiple concentrations) [µM] | Cmax (PPARα; multiple concentrations, read-out: Cmax, concentration at maximum efficiency percentage (Max%), PPARα) [µM]
1 | CC(C)(Oc1ccc(OCCCn2cnc3ccccc32)cc1)C(=O)O [6e, 2-(4-(3-(1H-benzo[d]imidazol-1-yl)propoxy)phenoxy)-2-methylpropanoic acid] | 7.09±0.97 | 1.26±0.01 | 1.38±0.06 | – | – | 0.1 | 0.0111 | – | –
2 | CC(C)(Oc1ccc(OCCCn2c3ccccc3c3ccccc32)cc1)C(=O)O [6d, 2-(4-(3-(9H-carbazol-9-yl)propoxy)phenoxy)-2-methylpropanoic acid] | 1.13±0.03 | 1.57±0.00 | 1.96±0.17 | – | – | – | – | – | –
3 | CC(C)(Oc1ccc(OCC(=O)c2ccccc2)cc1)C(=O)O [6n, 2-Methyl-2-(4-(2-oxo-2-phenylethoxy)phenoxy)propanoic acid] | 1.24±0.06 | 1.31±0.12 | 1.16±0.02 | – | – | – | – | – | –
4 | CC(C)(Oc1ccc(OCCn2ccc3ccccc32)cc1)C(=O)O [6a, 2-(4-(2-(1H-indol-1-yl)ethoxy)phenoxy)-2-methylpropanoic acid] | 0.97±0.09 | 1.21±0.09 | 1.00±0.07 | – | – | – | – | – | –
5 | CC(C)(Oc1cccc(OCCn2ccc3ccccc32)c1)C(=O)O [6o, 2-(3-(2-(1H-indol-1-yl)ethoxy)phenoxy)-2-methylpropanoic acid] | 1.00±0.24 | 3.01±0.16 | 1.01±0.11 | – | – | – | – | – | –
6 | CC(C)(Oc1ccc(OCCCn2ccc3ccccc32)cc1)C(=O)O [6c, 2-(4-(3-(1H-indol-1-yl)propoxy)phenoxy)-2-methylpropanoic acid] | 0.94±0.02 | 1.40±0.18 | 1.78±0.10 | – | – | – | – | – | –
7 | CC(C)(Oc1cccc(OCCCn2cnc3ccccc32)c1)C(=O)O [6j, 2-(3-(3-(1H-benzo[d]imidazol-1-yl)propoxy)phenoxy)-2-methylpropanoic acid] | 0.86±0.03 | 1.17±0.00 | 0.97±0.15 | – | – | – | – | – | –
8 | CC(C)(Oc1cccc(OCc2cccnc2)c1)C(=O)O [6l, 2-Methyl-2-(3-(pyridin-3-ylmethoxy)phenoxy)propanoic acid] | 6.60±0.90 | 1.34±0.01 | 1.39±0.21 | – | – | 0.1 | 0.0019 | – | –
9 | CC(C)(Oc1cccc(OCCn2c3ccccc3c3ccccc32)c1)C(=O)O [6g, 2-(3-(2-(9H-carbazol-9-yl)ethoxy)phenoxy)-2-methylpropanoic acid] | 1.28±0.11 | 18.55±0.06 | 1.40±0.27 | 50 | 11.8 | – | – | – | –
10 | CC(C)(Oc1cccc(OCCCn2c3ccccc3c3ccccc32)c1)C(=O)O [6i, 2-(3-(3-(9H-carbazol-9-yl)propoxy)phenoxy)-2-methylpropanoic acid] | 0.88±0.13 | 2.87±0.33 | 1.32±0.22 | – | – | – | – | – | –
11 | CC(C)(Oc1cccc(OCCCn2ccc3ccccc32)c1)C(=O)O [6h, 2-(3-(3-(1H-indol-1-yl)propoxy)phenoxy)-2-methylpropanoic acid] | 0.78±0.15 | 1.57±0.25 | 3.81±0.83 | – | – | – | – | 5.3 | 10
12 | CC(C)(Oc1cccc(OCCCc2ccccc2)c1)C(=O)O [6k, 2-Methyl-2-(3-(3-phenylpropoxy)phenoxy)propanoic acid] | 0.99±0.22 | 1.62±0.11 | 1.50±0.08 | – | – | – | – | – | –
13 | CC(C)(Oc1cccc(OCC(=O)c2ccccc2)c1)C(=O)O [6f, 2-Methyl-2-(3-(2-oxo-2-phenylethoxy)phenoxy)propanoic acid] | 1.27±0.09 | 1.22±0.01 | 1.58±0.09 | – | – | – | – | – | –
14 | CC(C)(Oc1ccc(OCCCc2ccccc2)cc1)C(=O)O [6m, 2-Methyl-2-(4-(3-phenylpropoxy)phenoxy)propanoic acid] | 1.73±0.03 | 2.26±0.18 | 2.01±0.22 | – | – | – | – | – | –
15 | c1cncc(COc2cccc(OCc3nn[nH]n3)c2)c1 [10l, 3-((3-((2H-tetrazol-5-yl)methoxy)phenoxy)methyl)pyridine] | 9.56±2.50 | 1.07±0.03 | 1.15±0.06 | – | – | 0.1 | 0.0273 | – | –
16 | CC(C)(Oc1ccc(OCCn2c3ccccc3c3ccccc32)cc1)C(=O)O [6b, 2-(4-(2-(9H-carbazol-9-yl)ethoxy)phenoxy)-2-methylpropanoic acid] | 1.23±0.07 | 1.19±0.00 | 0.80±0.00 | – | – | – | – | – | –

Further lines, with some results ahead:

Row | PPARδ Activation Fold (PPARδ [1]) | PPARγ Activation Fold (PPARγ [2]) | PPARα Activation Fold (PPARα) | Cmax (PPARγ [4]) [µM] | EC50 (PPARγ [5]) [µM] | SMILES | Cmax (PPARδ [1]) [µM] | EC50 (PPARδ [3]) [µM] | EC50 (PPARα; multiple concentrations) [µM] | Cmax (PPARα; multiple concentrations, read-out: Cmax, concentration at maximum efficiency percentage (Max%), PPARα) [µM]
17 | 1.26±0.15 | 1.93±0.23 | 1.91±0.13 | – | – | c1ccc(CCCOc2ccc(OCc3nn[nH]n3)cc2)cc1 [10e, 5-((4-(3-Phenylpropoxy)phenoxy)methyl)-2H-tetrazole] | – | – | – | –
18 | 1.24±0.17 | 1.46±0.20 | 0.74±0.09 | – | – | c1ccc(CCCOc2cccc(OCc3nn[nH]n3)c2)cc1 [10k, 5-((3-(3-Phenylpropoxy)phenoxy)methyl)-2H-tetrazole] | – | – | – | –
19 | 1.39±0.21 | 1.26±0.22 | 0.55±0.03 | – | – | c1ccc2c(c1)c1ccccc1n2CCOc1ccc(OCc2nn[nH]n2)cc1 [10b, 9-(2-(4-((2H-tetrazol-5-yl)methoxy)phenoxy)ethyl)-9H-carbazole] | – | – | – | –
20 | 1.01±0.08 | 0.96±0.01 | 0.67±0.02 | – | – | c1ccc2c(c1)ccn2CCCOc1ccc(OCc2nn[nH]n2)cc1 [10c, 1-(3-(4-((2H-tetrazol-5-yl)methoxy)phenoxy)propyl)-1H-indole] | – | – | – | –
21 | 1.15±0.22 | 0.96±0.02 | 0.50±0.04 | – | – | c1ccc2c(c1)c1ccccc1n2CCCOc1ccc(OCc2nn[nH]n2)cc1 [10d, 9-(3-(4-((2H-tetrazol-5-yl)methoxy)phenoxy)propyl)-9H-carbazole] | – | – | – | –
22 | 1.02±0.09 | 1.24±0.07 | 0.80±0.02 | – | – | c1cncc(COc2ccc(OCc3nn[nH]n3)cc2)c1 [10f, 3-((4-((2H-tetrazol-5-yl)methoxy)phenoxy)methyl)pyridine] | – | – | – | –
23 | 1.28±0.06 | 1.30±0.06 | 0.76±0.04 | – | – | c1ccc2c(c1)ccn2CCOc1ccc(OCc2nn[nH]n2)cc1 [10a, 1-(2-(4-((2H-tetrazol-5-yl)methoxy)phenoxy)ethyl)-1H-indole] | – | – | – | –
24 | 0.77±0.01 | 1.19±0.09 | 0.89±0.19 | – | – | c1cc(OCCCn2ccc3ccccc32)cc(OCc2nn[nH]n2)c1 [10i, 1-(3-(3-((2H-tetrazol-5-yl)methoxy)phenoxy)propyl)-1H-indole] | – | – | – | –
25 | 1.16±0.05 | 26.81±1.56 | 0.81±0.02 | 30 | 6.97 | c1cc(OCCn2c3ccccc3c3ccccc32)cc(OCc2nn[nH]n2)c1 [10h, 9-(2-(3-((2H-tetrazol-5-yl)methoxy)phenoxy)ethyl)-9H-carbazole] | – | – | – | –
26 | 0.83±0.04 | 2.83±0.49 | 0.90±0.05 | – | – | c1cc(OCCn2ccc3ccccc32)cc(OCc2nn[nH]n2)c1 [10g, 1-(2-(3-((2H-tetrazol-5-yl)methoxy)phenoxy)ethyl)-1H-indole] | – | – | – | –
27 | 0.88±0.09 | 0.69±0.01 | 0.65±0.00 | – | – | c1cc(OCCCn2c3ccccc3c3ccccc32)cc(OCc2nn[nH]n2)c1 [10j, 9-(3-(3-((2H-tetrazol-5-yl)methoxy)phenoxy)propyl)-9H-carbazole] | – | – | – | –
